Assay results reported in US20020136711A1, “Compositions used in human treatment” (priority 1998, published 2002).

Key:
skin flushing or rash = conditions: larger doses of niacin
Description: Typically, the form of niacin used may produce a flushing, redness or rash to the skin when consumed in large doses. […] Inositol is molecularly bonded to niacin, and in conjunction therewith serves to slow the absorption of nicotinic acid.

[1] = clinical trials: absorbability of chelated potassium; format: in vivo, human; conditions: potassium bonded or chelated with an amino acid or a simple sugar
Description: A preferred aspect of the present invention is the administering of potassium when bonded or chelated with an amino acid or a simple sugar.

Row | Compound | side-effects (flushing, redness or rash to the skin) at larger doses (skin flushing or rash) | absorbability and assimilation into the bloodstream [1]
1 | O=C(O[C@H]1[C@H](OC(=O)c2cccnc2)[C@@H](OC(=O)c2cccnc2)[C@H](OC(=O)c2cccnc2)[C@@H](OC(=O)c2cccnc2)[C@H]1OC(=O)c1cccnc1)c1cccnc1 [niacin inositol hexanicotinate] | no side-effects | –
2 | O=C([O-])[C@H](O)[C@@H](O)[C@H](O)[C@H](O)CO.[K+] [potassium gluconate] | – | better absorbability and assimilation into the bloodstream
